Data on six compounds can be found in patent US5792635A, “Method of inhibiting the sodium/proton exchanger NHE3 and method of inhibiting growth by administering squalamine” (priority 1995, dated 1998).

“Also recorded” adds a separate entry of the source.

Data set [1] can be described thus: Effect on fasting blood glucose in mice. It is filed as in vivo, mouse (CD-1). Conditions: intravenous; 1436 in D5W, 1437 in water. The protocol:
To study the effect of steroid administrator or the NHE responsible for secretion of insulin, several of the aminosterols from shark liver were administered to fasting mice. Male CD-1 mice were assigned to one of four treatment groups. Whole blood glucose was tested using glucometer (Lifescan Glucometer II and One Touch test strips). Statistical analysis was via one-way analysis of variance (ANOVA) followed by subsequent Bonferonni's t-test.

The test system of data set [2] is Xenopus tadpoles. Nature of the data set: Tadpole assay. Conditions: 10 μg/ml; stage 59-60 Xenopus.
Data set [3] concerns Human ovarian carcinoma SKOV3. Description: Cancer cells inhibited in vitro. The data set is classed as cell-based. The note with it: SKOV3. The protocol:
As set forth in Table 7 below, all malignant tumors evaluated in tissue culture, endothelial cells and vascular smooth muscle cells were sensitive to inhibition. Thus, compound 1436 has application in the control of growth factor dependent proliferation of many types of tissue.
Using the assay described above, the anticancer effects of compound 1437 against several cancer lines was assessed.

For data set [4], the system named is NHE1β. Conditions: nucleated erythrocytes; cited from earlier work.
For data set [5], the system named is L1210 lymphoblastic leukemia cells. Nature of the data set: Mouse model of leukemia (L1210), survival and hematological profile. The note with it: L1210-inoculated mice.
Text: C57B mice were inoculated with L1210 lymphoblastic leukemia cells at an inoculum that causes leukemia in 100% of animals.
Data set [6] deals with vitelline capillaries of 3- to 5-day chick embryo. Nature of the data set: Chick embryo vitelline capillary regression assay. It is filed as in vivo. Conditions: Table 5. The protocol:
(§1) Using the chick embryo vitelline capillaries assay, compounds were tested for their ability to induce capillary regression. Each compound was applied in 0.1 ml of 15% Ficol 400 and PBS onto the embryo, and vascular regression was assessed after 60 minutes.
The 3-day chick embryo consists of an embryonic disc from which numerous vessels emerge and return, forming a "figure 8"-shaped structure--the embryo in the center with vascular loops extending outward over both poles. […] Following a lag period of around 15 minutes, the constriction of continuity between capillary and secondary vessels, generally on the "venous" side, was observed. Continued pulsatile blood flow progressed, resulting in a "swelling" of the blind tube, followed by a pinching off of the remaining connection and formation of an enclosed vascular sac resembling a "blood island." This process progressed until only the largest vessels remained intact.

Data set [7] relates to Xenopus tadpoles. The note with it: in vivo.
In data set [8] the test system is NHE. Description: Assay for direct inhibition of NHE. It is filed as cell-based. The note with it: relative to squalamine. The source says:
Moreover, other aminosterols have shown anti-angiogenic activity. Compounds were subjected to a various assays, including the chick embryo capillary regression assay, the tadpole assay, the assay for inhibition of endothelial cord formation, and the assay for direct inhibition of NHE, as described above, to determine their utilities. As evident from the above data, correlation among the results from the chick, tadpole and in vitro inhibition of endothelial cell cord formation assays is excellent.
Through the application of these assays, compound 319 emerged as an attractive alternative to squalamine. […] Further properties of compound 319 are discussed below.

For data set [9], the system named is chick embryo. Nature of the data set: Chick embryo diss. assay (Table II). It is filed as in vivo. The protocol: as §1
In data set [10] the test system is LLC. Nature of the data set: LLC MTT assay (Table II). Conditions: Lewis lung carcinoma, read-out: Minimum Effective Concentration, LLC MTT. The data set is classed as cell-based.
The test system of data set [11] is HM. Description: HM MTT assay (Table II). It is filed as cell-based. The note with it: read-out: Minimum Effective Concentration, HM MTT assay. (Formazan colour is commonly taken as a measure of viable cells.)

On to `CC(C)C(CO)(CC[C@@H](C)[C@H]1CC[C@H]2[C@@H]3[C@H](O)C[C@H]4C[C@@H](NCCCNCCCCN)CC[C@]4(C)[C@H]3CC[C@]12C)OS(=O)(=O)O` (single isomer, unassigned) [Compound 1437], for which the hyperglycemic response result in [1] was “caused hyperglycemia in mice”. Further, the “observed response in tadpole” value in data set [2] is “Epithelium covering the embryonic portions of the animal, such as the tail and antennae, began to slough off in sheets; also recorded: Animal was otherwise active, with little tissue breakdown noted; also recorded: the larval skin was observed to shed off in a sheet”. Also, the anticancer activity result in [3] is given as “anticancer activity”.
Consider `N=C(N)NC(=O)c1nc(Cl)c(N)nc1N` [Amiloride], for which the “inhibition of NHE1β” value in [4] is given as “inhibited by high concentrations of amiloride”.
Consider `N.N.[Cl][Pt][Cl]` [Cisplatin, reference compound], for which the hematological profile result in data set [5] is “profound anemia by day 28”.
With `C[C@H](CCC(=O)O)[C@H]1CC[C@H]2[C@@H]3CC[C@H]4C[C@@H](NCCCNCCCCN)CC[C@]4(C)[C@H]3CC[C@]12C` [Compound 319], in data set [6], the “activity in vitelline capillary regression assay” value was “especially active”. Also, the CNS effects entry in [7] was “no CNS effects”. For the same compound, in [2], the “observed response in tadpole” value is “common vascular occlusive effect”. Also, the “potency as an NHE inhibitor” value in data set [8] is listed as “superior to squalamine”.
For `COC(=O)CCC(C)[C@H]1CCC2C3CC[C@H]4C[C@H](NCCCNCCCCNCCCN)CC[C@]4(C)C3CC[C@@]21C` (stereo partly shown) [drawing 108], in data set [9], the “Minimum Effective Concentration, chick embryo diss. assay” value was greater than 1 µg. Moreover, the minimal effective concentration in [10] was found to be 6.8 µg/mL.
Take `CC(C)[C@@H](CC[C@@H](C)[C@H]1CC[C@H]2[C@@H]3[C@H](O)C[C@H]4C[C@@H](NCCCNCCCCNCCCN)CC[C@]4(C)[C@H]3CC[C@]12C)OS(=O)(=O)O` [drawing 119]: the minimal effective concentration in data set [10] was determined as 16.7 µg/mL; in data set [11], 6.9 µg/mL.
